Test results from article PMC7156458, “Synthetic biology based construction of biological activity-related library of fungal decalin-containing diterpenoid pyrones” (Nature Communications, 2020).
Where “and” joins values, the source holds several entries; their conditions need not be identical. Equal values may be shown once. Read-outs that look alike come from different tables or passages of the source.

Legend:
MCF-7 cells = experiment: cell cytotoxic effects against MCF-7 cells (72 h), A490; assay type: cell-based, human; details: for viability at 0.1 µM / viability at 1 µM / viability at 10 µM: Homo sapiens, MCF7, 72 h, read-out: A490 (control =1) ave; for viability at 0.1 µM / viability at 1 µM / viability at 10 µM / A490 ave: MCF-7, 72 h
Method: !" ' ' '! !" ' ' '! !" ' ' '!!" ' ' '!!" ' ' '!!" ' ' '!!" ' ' '!!" ' ' '! !" ' ' '! !" ' ' '! !" ' ' '! !"#$
( % ) * '! '' '# '+ '$ '( '%
! " # $ %& %% %' %( %) %! %"
!" ' ' '! !" ' ' '!!" ' ' '!!" ' ' '!!" ' ' '!!" ' ' '!!" ' ' '! !" ' ' '! !" ' ' '! !" ' ' '! !" ' ' '! […]
Supplementary Fig. 46. a, Cell cytotoxic effects of DDPs against MCF-7 cells (72 h).
dose dependent cytotoxic effects against MCF-7 cells were tested their inhibitory activity against mammosphere
formation. Compound in blue (16) was also performed mammosphere assay as negative control. Data represent
mean±s.d. from three independent replicate experiments. […]
Source data underlying Supplementary Figure 46a are provided in a Source Data file. […]

MAGI cells = experiment: cytotoxicity in the anti-HIV assay (CC50); assay type: cell-based; details: for Cytotoxicity Avg.: average of numeric determinations
Text: We examined the inhibitory activities of DDPs against various species of bacteria (both gram-negative and gram-positive bacteria), fungi and viruses. […] In contrast, preliminary screening of the DDPs for anti-viral agents with hepatitis B virus (HBV), measles virus (MV), Epstein-Barr virus (EBV), herpes simplex virus (HSV) and human immunodeficiency virus-1 (HIV-1) indicated their selective inhibition of HIV.
Policy information about cell lines […]
HeLa-CD4-LTR/ !-galactosidase (MAGI) cells provided by Dr. J. Overbaugh through the NIH AIDS Research and Reference […]
MAGI cells were authenticated by the NIH.
Mycoplasma contamination All the cell lines tested negative for mycoplasma contamination.
Commonly misidentified lines No commonly mis-identified cell lines. […]

[1] = cytotoxicity in Drosophila l(2)mbn cells; assay type: cell-based; details: Drosophila, l(2)mbn cells (larval blood cell-derived)
Method: (§1) We screened the DDPs on the Drosophila assay system for cytotoxicity, inhibitory activity of innate immune signalling and insecticidal activity. The cytotoxicity of the DDPs was evaluated using two cell lines, embryonic macrophage-derived DL1 cells[58]–[60] and larval blood cell-derived l(2)mbn cells, and their IC50 values are listed in Supplementary Table 23.

l(2)mbn cells = experiment: cytotoxicity in Drosophila l(2)mbn cells; assay type: cell-based; details: for Luminescence Raw1: replicate 1; for Luminescence Raw2: replicate 2; for IC50: Drosophila melanogaster, cytotoxicity
Method: as §1

[2] = 0.1 µM (DMSO 0.002%), control 1.064
[3] = 1 µM (DMSO 0.02%), control 1.104
[4] = 10 µM (DMSO 0.2%), control 1.049
[5] = replicate 1, relative to DMSO 1%, read-out: % viability, viability 1
[6] = replicate 2, relative to DMSO 1%, read-out: % viability, viability 2

SMILES	cytotoxicity against the bulk of MCF-7 cells (MCF-7 cells)	viability at 0.1 µM (MCF-7 cells; 0.1 µM (DMSO 0.002%)) [%]	viability at 1 µM (MCF-7 cells; 1 µM (DMSO 0.02%)) [%]	viability at 10 µM (MCF-7 cells; 10 µM (DMSO 0.2%)) [%]	A490 ave (MCF-7 cells; [2])	A490 ave (MCF-7 cells; [3])	A490 ave (MCF-7 cells; [4])	Cytotoxicity Avg. (MAGI cells) [µM]	viability at 0.04 µM [1, 5] [%]	viability at 0.04 µM [1, 6] [%]	viability at 0.2 µM [1, 5] [%]	viability at 0.2 µM [1, 6] [%]	viability at 1 µM [1, 5] [%]	viability at 1 µM [1, 6] [%]	viability at 4 µM [1, 5] [%]	viability at 4 µM [1, 6] [%]	viability at 10 µM [1, 5] [%]	viability at 10 µM [1, 6] [%]	viability at 20 µM [1, 5] [%]	viability at 20 µM [1, 6] [%]	other results
C=C1CC[C@@H]2[C@](C)(CC[C@H]3O[C@H](C=C(C)C)C[C@@]23C)[C@@H]1Cc1c(OC)oc(C)c(C)c1=O [Compound 22, O-methylated higginsianin A]	dose-dependent cytotoxicity	81.4	48	30.1	0.866	0.530	0.316	5.079	–	–	–	–	–	–	–	–	–	–	–	–	Cytotoxicity (MAGI cells; single determinations): 5.68 µM and 5.915 µM and 3.643 µM
C=C1CCC2C(C)(CC(=O)C=C(C)C)C(O)CCC2(C)C1Cc1c(OC)oc(C)c(C)c1=O (stereo not drawn) [Compound 25]	–	78.9	103	112	0.839	1.141	1.171	–	124	126	130	134	121	140	137	148	125	136	87.1	97.2	Luminescence Raw1 (l(2)mbn cells; 0.04 µM): 3193720; Luminescence Raw2 (l(2)mbn cells; 0.04 µM): 3243139; Luminescence Raw1 (l(2)mbn cells; 0.2 µM): 3343782; Luminescence Raw2 (l(2)mbn cells; 0.2 µM): 3450197; Luminescence Raw1 (l(2)mbn cells; 1 µM): 3097409; Luminescence Raw2 (l(2)mbn cells; 1 µM): 3603150; Luminescence Raw1 (l(2)mbn cells; 4 µM): 3528838; Luminescence Raw2 (l(2)mbn cells; 4 µM): 3786770; Luminescence Raw1 (l(2)mbn cells; 10 µM): 3209953; Luminescence Raw2 (l(2)mbn cells; 10 µM): 3480138; Luminescence Raw1 (l(2)mbn cells; 20 µM): 2234271; Luminescence Raw2 (l(2)mbn cells; 20 µM): 2495041; IC50 (l(2)mbn cells; average±SEM, read-out: IC50): > 20 µM
C=C1CCC2C(C)(CCC=C(C)C)C(O)CCC2(C)C1Cc1c(OC)oc(CO)c(C)c1=O (stereo not drawn) [Compound 16]	Low-toxicity	–	–	–	0.808	1.178	0.730	6.65	–	–	–	–	–	–	–	–	–	–	–	–	–
C=C1CCC2C(C)(CCC=C(C)C)C(O)CCC2(C)C1Cc1c(OC)oc(CO)c(C)c1=O (stereo not drawn) [Compound 12]	dose-dependent cytotoxicity	72.1	–	–	0.767	0.265	0.189	–	139	135	156	139	112	136	16.2	12.9	7.07	6.84	7.38	6.31	Luminescence Raw1 (l(2)mbn cells; 0.04 µM): 3578369; Luminescence Raw2 (l(2)mbn cells; 0.04 µM): 3458604; Luminescence Raw1 (l(2)mbn cells; 0.2 µM): 4007302; Luminescence Raw2 (l(2)mbn cells; 0.2 µM): 3578369; Luminescence Raw1 (l(2)mbn cells; 1 µM): 2865222; Luminescence Raw2 (l(2)mbn cells; 1 µM): 3493234; Luminescence Raw1 (l(2)mbn cells; 4 µM): 415037; Luminescence Raw2 (l(2)mbn cells; 4 µM): 331384; Luminescence Raw1 (l(2)mbn cells; 10 µM): 181387; Luminescence Raw2 (l(2)mbn cells; 10 µM): 175618; Luminescence Raw1 (l(2)mbn cells; 20 µM): 189320; Luminescence Raw2 (l(2)mbn cells; 20 µM): 161917; IC50 (l(2)mbn cells; average of two replicates, read-out: IC50 Average): 3.29 µM; IC50 (l(2)mbn cells; average±SEM, read-out: IC50): 3.29 ± 0.16 µM; IC50 (l(2)mbn cells; replicate 1, read-out: IC50 (1)): 3.13 µM; IC50 (l(2)mbn cells; replicate 2, read-out: IC50 (2)): 3.45 µM
